Reference: PubChem BioAssay AID248 (DTP/NCI, 2004)
Toxic doses and inconclusive results are not listed. Cut-off read from the data, not from the text of the source: active = T/C of 150% or more; inactive = T/C below 125%.

System: L1210 leukemia ip in BDF1 mice, survival T/C
Assay: NCI In Vivo Anticancer Drug Screen. Data for tumor model L1210 Leukemia (intraperitoneal) in B6D2F1 (BDF1) mice
Details: endpoint: mean survival time, higher = longer survival
Summary of the method: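 Tumor cells were implanted, animals were treated, and survival was followed. The result divides the treated measurement by the vehicle-control measurement.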

[1] = dose: 100.0 mg/kg/injection, schedule: Q04DX003 (ip), vehicle: Klucel (hydroxypropylcellulose) (HPC)
[2] = dose: 100.0 mg/kg/injection, schedule: Q01DX009 (ip), vehicle: Klucel (hydroxypropylcellulose) (HPC)
[3] = dose: 100.0 mg/kg/injection, schedule: Q01DX001 (ip), vehicle: saline
[4] = dose: 200.0 mg/kg/injection, schedule: Q01DX001 (ip), vehicle: saline
[5] = dose: 100.0 mg/kg/injection, schedule: Q04DX003 (ip), vehicle: saline with Tween-80
[6] = dose: 200.0 mg/kg/injection, schedule: Q04DX003 (ip), vehicle: saline with Tween-80
[7] = dose: 400.0 mg/kg/injection, schedule: Q04DX003 (ip), vehicle: saline with Tween-80
[8] = dose: 100.0 mg/kg/injection, schedule: Q04DX003 (ip), vehicle: saline
[9] = dose: 200.0 mg/kg/injection, schedule: Q04DX003 (ip), vehicle: saline
[10] = dose: 400.0 mg/kg/injection, schedule: Q04DX003 (ip), vehicle: saline

Measured: T/C

O=C(CCN1CC1)OC1CCCC1
inactive: dose: 0.25 mg/kg/injection, schedule: Q01DX009 (ip), vehicle: Klucel (hydroxypropylcellulose) (HPC) 91 % of control | dose: 0.5 mg/kg/injection, schedule: Q01DX009 (ip), vehicle: Klucel (hydroxypropylcellulose) (HPC) 97 % of control | dose: 1.0 mg/kg/injection, schedule: Q01DX009 (ip), vehicle: Klucel (hydroxypropylcellulose) (HPC) 103 % of control | dose: 2.5 mg/kg/injection, schedule: Q01DX009 (ip), vehicle: Klucel (hydroxypropylcellulose) (HPC) 100 % of control | dose: 20.0 mg/kg/injection, schedule: Q04DX003 (ip), vehicle: Klucel (hydroxypropylcellulose) (HPC) 98 % of control | dose: 40.0 mg/kg/injection, schedule: Q04DX003 (ip), vehicle: Klucel (hydroxypropylcellulose) (HPC) 97 % of control | dose: 80.0 mg/kg/injection, schedule: Q04DX003 (ip), vehicle: Klucel (hydroxypropylcellulose) (HPC) 97 % of control | [1] 102 % of control

CN(C)CCCN=NNc1nc[nH]c1C(N)=O
inactive: dose: 100.0 mg/kg/injection, schedule: Q01DX001 (ip), vehicle: Klucel (hydroxypropylcellulose) (HPC) 95 % of control | [1] 108 % of control | dose: 200.0 mg/kg/injection, schedule: Q01DX001 (ip), vehicle: Klucel (hydroxypropylcellulose) (HPC) 91 % of control | dose: 200.0 mg/kg/injection, schedule: Q04DX003 (ip), vehicle: Klucel (hydroxypropylcellulose) (HPC) 92 % of control | dose: 400.0 mg/kg/injection, schedule: Q01DX001 (ip), vehicle: Klucel (hydroxypropylcellulose) (HPC) 95 % of control

CCOC(=O)CSc1nc2ccccc2[nH]1
inactive: dose: 100.0 mg/kg/injection, schedule: Q01DX001 (ip), vehicle: saline with Tween-80 97 % of control | dose: 200.0 mg/kg/injection, schedule: Q01DX001 (ip), vehicle: saline with Tween-80 98 % of control | dose: 400.0 mg/kg/injection, schedule: Q01DX001 (ip), vehicle: saline with Tween-80 93 % of control

CC(=O)OC12C(=O)OC(=O)C1(C)C1c3ccccc3C2c2ccccc21 (centres undefined)
inactive: dose: 25.0 mg/kg/injection, schedule: Q01DX009 (ip), vehicle: Klucel (hydroxypropylcellulose) (HPC) 111 % of control | dose: 50.0 mg/kg/injection, schedule: Q01DX009 (ip), vehicle: Klucel (hydroxypropylcellulose) (HPC) 106 % of control | [2] 98 % of control

Cc1cc(Cl)ccc1NC(C)(C)C
inactive: dose: 75.0 mg/kg/injection, schedule: Q04DX002 (ip), vehicle: Klucel (hydroxypropylcellulose) (HPC) 104 % of control | dose: 150.0 mg/kg/injection, schedule: Q04DX002 (ip), vehicle: Klucel (hydroxypropylcellulose) (HPC) 108 % of control | dose: 300.0 mg/kg/injection, schedule: Q04DX002 (ip), vehicle: Klucel (hydroxypropylcellulose) (HPC) 104 % of control

C1=NC(c2ccccc2)=CN(C2CCCCCCC2)C1(c1ccccc1)C1CCCCCCC1 (centres undefined)
inactive: dose: 50.0 mg/kg/injection, schedule: Q04DX002 (ip), vehicle: saline 99 % of control | dose: 100.0 mg/kg/injection, schedule: Q04DX002 (ip), vehicle: Klucel (hydroxypropylcellulose) (HPC) 95 % of control | dose: 100.0 mg/kg/injection, schedule: Q04DX002 (ip), vehicle: saline 99 % of control | dose: 200.0 mg/kg/injection, schedule: Q04DX002 (ip), vehicle: Klucel (hydroxypropylcellulose) (HPC) 92 % of control | dose: 400.0 mg/kg/injection, schedule: Q04DX002 (ip), vehicle: Klucel (hydroxypropylcellulose) (HPC) 92 % of control

O=C(OC1CSC1)c1ccc([N+](=O)[O-])cc1
inactive: [2] 95 % of control | dose: 200.0 mg/kg/injection, schedule: Q01DX009 (ip), vehicle: Klucel (hydroxypropylcellulose) (HPC) 92 % of control | dose: 400.0 mg/kg/injection, schedule: Q01DX009 (ip), vehicle: Klucel (hydroxypropylcellulose) (HPC) 97 % of control

Cc1ccc(Nc2ncnc3nc[nH]c23)cc1CN(CCO)CCO
inactive: [3] 101 % of control | [4] 101 % of control | dose: 400.0 mg/kg/injection, schedule: Q01DX001 (ip), vehicle: saline 95 % of control

COc1ccc(NC(=O)Nc2cc(Cl)ccc2Cl)cc1
inactive: [5] 90 % of control | [6] 92 % of control | [7] 92 % of control

COc1ccccc1[P+](CO)(c1ccccc1OC)c1ccccc1OC
inactive: dose: 100.0 mg/kg/injection, schedule: Q01DX009 (ip), vehicle: saline 97 % of control | [8] 103 % of control | dose: 200.0 mg/kg/injection, schedule: Q01DX009 (ip), vehicle: saline 92 % of control | [9] 97 % of control | dose: 400.0 mg/kg/injection, schedule: Q01DX009 (ip), vehicle: saline 93 % of control | [10] 97 % of control

COc1ccc2c(c1)C1C=[S+]c3ccccc3C1N2 (centres undefined)
inactive: dose: 12.5 mg/kg/injection, schedule: Q01DX009 (ip), vehicle: saline 101 % of control | dose: 12.5 mg/kg/injection, schedule: Q04DX003 (ip), vehicle: saline 95 % of control | dose: 25.0 mg/kg/injection, schedule: Q01DX009 (ip), vehicle: saline 103 % of control | dose: 25.0 mg/kg/injection, schedule: Q04DX003 (ip), vehicle: saline 92 % of control | dose: 50.0 mg/kg/injection, schedule: Q04DX003 (ip), vehicle: saline 98 % of control

O=C(Nc1cccc(C(F)(F)F)c1)c1cc(C(O)C2CCCCN2)c2cccc(C(F)(F)F)c2n1 (centres undefined)
inactive: dose: 100.0 mg/kg/injection, schedule: Q01DX009 (sc), vehicle: olive oil, sesame oil, peanut oil 105 % of control | dose: 100.0 mg/kg/injection, schedule: Q04DX003 (sc), vehicle: olive oil, sesame oil, peanut oil 102 % of control | dose: 200.0 mg/kg/injection, schedule: Q01DX009 (sc), vehicle: olive oil, sesame oil, peanut oil 97 % of control | dose: 200.0 mg/kg/injection, schedule: Q04DX003 (sc), vehicle: olive oil, sesame oil, peanut oil 97 % of control | dose: 400.0 mg/kg/injection, schedule: Q01DX009 (sc), vehicle: olive oil, sesame oil, peanut oil 108 % of control | dose: 400.0 mg/kg/injection, schedule: Q04DX003 (sc), vehicle: olive oil, sesame oil, peanut oil 97 % of control

COC1CC(N=[N+]=[N-])C(OC(=O)c2ccccc2)C(C)O1 (centres undefined)
inactive: dose: 100.0 mg/kg/injection, schedule: Q01DX009 (ip), vehicle: saline with Tween-80 110 % of control | [5] 96 % of control | dose: 200.0 mg/kg/injection, schedule: Q01DX009 (ip), vehicle: saline with Tween-80 102 % of control | [6] 100 % of control | dose: 400.0 mg/kg/injection, schedule: Q01DX009 (ip), vehicle: saline with Tween-80 98 % of control | [7] 102 % of control

O=c1ccnc(SCc2ccccc2)[nH]1
inactive: dose: 100.0 mg/kg/injection, schedule: Q01DX Z (ip), vehicle: methylcellulose (MC) 95 % of control | dose: 200.0 mg/kg/injection, schedule: Q01DX Z (ip), vehicle: methylcellulose (MC) 97 % of control

NNC(=O)OCc1ccccc1
inactive: dose: 25.0 mg/kg/injection, schedule: Q04DX002 (ip), vehicle: saline with Tween-80 100 % of control | dose: 50.0 mg/kg/injection, schedule: Q04DX002 (ip), vehicle: saline with Tween-80 100 % of control | dose: 100.0 mg/kg/injection, schedule: Q04DX002 (ip), vehicle: saline with Tween-80 100 % of control

CC[CH2][Ge]([CH2]CC)([CH2]CC)[O][Ge]([CH2]CC)([CH2]CC)[CH2]CC
inactive: dose: 50.0 mg/kg/injection, schedule: Q01DX001 (ip), vehicle: carboxymethylcellulose (CMC) 96 % of control | dose: 50.0 mg/kg/injection, schedule: Q01DX001 (ip), vehicle: saline 95 % of control | dose: 100.0 mg/kg/injection, schedule: Q01DX001 (ip), vehicle: carboxymethylcellulose (CMC) 100 % of control | [3] 101 % of control | dose: 200.0 mg/kg/injection, schedule: Q01DX001 (ip), vehicle: carboxymethylcellulose (CMC) 100 % of control | [4] 104 % of control | dose: 400.0 mg/kg/injection, schedule: Q01DX001 (ip), vehicle: carboxymethylcellulose (CMC) 105 % of control

CC(=O)C[n+]1ccccc1Br
inactive: dose: 62.0 mg/kg/injection, schedule: Q01DX015 (ip), vehicle: water 87 % of control | dose: 125.0 mg/kg/injection, schedule: Q01DX015 (ip), vehicle: water 100 % of control

O=NN1C(=O)C2CC3CC(C2)CC1C3
inactive: dose: 3.12 mg/kg/injection, schedule: Q01DX009 (ip), vehicle: saline with Tween-80 91 % of control | dose: 6.25 mg/kg/injection, schedule: Q01DX009 (ip), vehicle: saline with Tween-80 107 % of control | dose: 12.5 mg/kg/injection, schedule: Q01DX009 (ip), vehicle: saline with Tween-80 96 % of control

CCOC(=O)CCSCC(C)(C)C(=O)OCC
inactive: [8] 105 % of control | [9] 105 % of control | [10] 103 % of control
